How the values were obtained:
[1] = system: Human bone marrow CD34+ cells; experiment: Megakaryocyte colony stimulating activity (megakaryocyte colony forming method); format: cell-based; details: 11 days, MegaCult-C, colonies of at least 8 stained megakaryocyte cells, average of at least 2 wells
Description: The action of the compounds of Synthetic Examples 2 to 6 of the present invention and Reference Synthetic Examples 6 to 7 on the proliferation, differentiation and maturation of megakaryocyte cells was measured by the megakaryocyte colony forming method using human bone marrow cells. Human bone marrow CD34^+ cells (Cambrex Bio Science Walkersville) were incubated on 2-well chamber slide for 11 days in a CO2 incubator (5% Co2, 37° C.) using MegaCult™-C (StemCell Technologies) containing 0.1% (v/v) of the compounds of Synthetic Examples dissolved in dimethyl sulfoxide. After dehydration and fixation, the cells were stained with an anti-glycoprotein IIb/IIIa antibody in accordance with the instruction by the manufacturer. The colonies consisting of at least 8 stained megakaryocyte cells in each well were counted under a microscope. The megakaryocyte colony counts in at least 2 wells were averaged.

[2] = Plasma concentration after oral administration to rats, determined by UT7/EPO-mpl proliferation bioassay; format: in vivo; details: rat, male Sprague-Dawley rats, 10 mg/kg, between 0.5 and 2 hours after administration, read-out: Cmax (maximum concentration in blood)
Description: Each of the compounds of Synthetic Examples was suspended in a 99/1 liquid mixture of 0.5% methylcellulose/Polyoxyethylene Sorbitan Monooleate and orally administered to 7-week-old male Sprague-Dawley rats (Japan SLC, Inc.) at a dose of 10 mg/kg/10 mL through a stomach tube. Between 0.5 and 2 hours after the administration of the compounds, blood was periodically collected from the cervical vein with heparin as the anticoagulant. The blood was centrifuged at 3500 min^−1 for 10 minutes to obtain plasma. The plasma was added to the assay system used for assay of proliferation of a thrombopoietin-dependent cell line UT7/EPO-mpl in Assay Example 1 at final concentrations of from 0.1 to 3%, and the cell proliferation was assayed. The concentration of each compound in plasma was calculated from the cell proliferation in the presence of plasma by comparison with a standard curve of cell proliferation versus compound concentration prepared for each compound. The maximum concentration (Cmax) of each of the compounds of Synthetic Examples in blood between 0.5 and 2 hours after the oral administration to rats is shown in Table 3.

SMILES | Colony count at 1 μg/mL [1] | Cmax [2] [ng/mL]
CC(=NNC(=O)c1ccc(C(=O)NC(C)C)s1)c1nn(C)c(-c2ccc(C(F)(F)F)cc2)c1O [Synthetic Example 3, 5-{1-[4-hydroxy-1-methyl-5-(4-trifluoromethylphenyl)-1H-pyrazol-3-yl]ethylidenehydrazinocarbonyl}thiophene-2-carboxylic Acid 2-propylamide] | 141 | 
COCCNC(=O)c1ccc(C(=O)NN=C(C)c2nn(C)c(-c3ccc(C(F)(F)F)cc3)c2O)s1 [Synthetic Example 5, 5-{1-[4-hydroxy-1-methyl-5-(4-trifluoromethylphenyl)-1H-pyrazol-3-yl]ethylidenehydrazinocarbonyl}thiophene-2-carboxylic Acid 2-methoxyethylamide] | 335 | 
CCN(CC)C(=O)c1ccc(C(=O)NN=C(C)c2nn(C)c(-c3ccc(C(F)(F)F)cc3)c2O)s1.[K] [Synthetic Example 1, 5-{1-[4-hydroxy-1-methyl-5-(4-trifluoromethylphenyl)-1H-pyrazol-3-yl]ethylidenehydrazinocarbonyl}thiophene-2-carboxylic Acid Diethylamide Potassium Salt] |  | 760
C/C(=N\NC(=O)c1ccc(C(=O)O)s1)c1nn(C)c(-c2ccc(C(C)(C)C)cc2)c1O [Reference Synthetic Ex. 6, reference compound] | 1 | 
CC(=NNC(=O)c1ccc(C(=O)NCc2ccncc2)s1)c1nn(C)c(-c2ccc(Cl)c(Cl)c2)c1O [Synthetic Example 6, 5-{1-[5-(3,4-dichlorophenyl)-4-hydroxy-1-methyl-1H-pyrazol-3-yl]ethylidenehydrazinocarbonyl}thiophene-2-carboxylic Acid 4-picolylamide] | 173 | 
CC(=NNC(=O)c1ccc(C(=O)NCc2ccccn2)s1)c1nn(C)c(-c2ccc(C(F)(F)F)cc2)c1O.[K] [Synthetic Example 2, 5-{1-[4-hydroxy-1-methyl-5-(4-trifluoromethylphenyl)-1H-pyrazol-3-yl]ethylidenehydrazinocarbonyl}thiophene-2-carboxylic Acid 2-picolylamide Potassium Salt] | 121 | 1200
CC(=NNC(=O)c1ccc(C(=O)NCc2ccncc2)s1)c1nn(C)c(-c2ccc(C(F)(F)F)cc2)c1O [Synthetic Example 4, 5-{1-[4-hydroxy-1-methyl-5-(4-trifluoromethylphenyl)-1H-pyrazol-3-yl]ethylidenehydrazinocarbonyl}thiophene-2-carboxylic Acid 4-picolyamide] | 111 | 

Source: patent US7960425B2, “Pyrazole compounds and thrombopoietin receptor activators” (Nissan Chemical Industries, Ltd., priority 2005, dated 2011)
